# Experimental data as given in article PMC10873626, “Acceleration of infectious disease drug discovery and development using a humanized model of drug metabolism” (Proceedings of the National Academy of Sciences of the …, 2024).
# Like-named read-outs stand apart in the source and are kept apart here.
# Experiments:
# [1] = mouse, microsomes
# [2] = system: CYP; settings: cited from earlier work
# [3] = mouse, microsomes; remark: listed apart in the source
# [4] = mouse, microsomes; remark: listed apart in the source
# [5] = mouse, hepatocytes
# [6] = microsomes
# [7] = Oral pharmacokinetics in 8HUM mice; settings: female, mouse, whole blood
# [8] = human, 100 mg BID; ref SI 8; cited from earlier work
# [9] = Oral pharmacokinetics in WT mice; settings: female, mouse, whole blood
# [10] = system: M. tuberculosis H37Rv; test: Acute M. tuberculosis infection efficacy model in 8HUM (lung CFU); assay type: in vivo, Mycobacterium tuberculosis; settings: 8HUM, day 9, 30 mg/kg QD
# [11] = mouse, hepatocytes; remark: listed apart in the source
# [12] = hepatocytes
compound,measurement,setting,value
CC(=O)NC[C@H]1CN(c2ccc(N3CCOCC3)c(F)c2)C(=O)O1 [Linezolid],"CLint, 8HUM",[1],0.5 mL/min/g liver
same,CYP interaction: Substrate,[2],3A4
same,"CLint, CypC4KO",[3],0.5 mL/min/g liver
same,"CLint, WT",[4],0.5 mL/min/g liver
same,"CLint, 8HUM",[5],0.5 mL/min/g liver
CC(C)CN(C[C@@H](O)[C@H](Cc1ccccc1)NC(=O)O[C@H]1CCOC1)S(=O)(=O)c1ccc(N)cc1 [Amprenavir],CYP interaction: Inhibitor,[2],3A4
C[C@H](Cn1cnc2c(N)ncnc21)OCP(=O)(O)O [Tenofovir],CYP interaction: Substrate,[2],1A2
CO[C@H]1/C=C/O[C@@]2(C)Oc3c(C)c(O)c4c(O)c(c(/C=N/N5CCN(C)CC5)c(O)c4c3C2=O)NC(=O)/C(C)=C\C=C\[C@H](C)[C@H](O)[C@@H](C)[C@@H](O)[C@@H](C)[C@H](OC(C)=O)[C@@H]1C [Rifampicin],"CLint, Human",[6],0.8 mL/min/g liver
CO[C@H]1C[C@H](O[C@H]2[C@H](C)[C@@H](O[C@@H]3O[C@H](C)C[C@H](N(C)C)[C@H]3O)[C@@H](C)C[C@@]3(CO3)C(=O)[C@H](C)[C@@H](O)[C@@H](C)[C@@H](C)OC(=O)[C@@H]2C)O[C@@H](C)[C@@H]1O [Oleandomycin],"CLint, Human",[6],18.5 mL/min/g liver
same,CYP interaction: Inhibitor,[2],3A4
same,"CLint, CypC4KO",[3],50 mL/min/g liver
Cc1cc(C#N)cc(C)c1Oc1nc(Nc2ccc(C#N)cc2)nc(N)c1Br [Etravirine],"CLint, Human",[6],1 mL/min/g liver
CC[C@@H]([C@H](C)O)n1ncn(-c2ccc(N3CCN(c4ccc(OC[C@@H]5CO[C@@](Cn6cncn6)(c6ccc(F)cc6F)C5)cc4)CC3)cc2)c1=O [Posaconazole],"CLint, Human",[6],0.5 mL/min/g liver
same,"CLint, 8HUM",[1],0.5 mL/min/g liver
same,"CLint, WT",[4],0.5 mL/min/g liver
C=C[C@H]1C[N@@]2CC[C@H]1C[C@@H]2[C@@H](O)c1ccnc2ccc(OC)cc12 [Quinidine],CYP interaction: Inhibitor,[2],2D6
CO[C@H]1O[C@@H]2O[C@@]3(C)CC[C@H]4[C@H](C)CC[C@@H]([C@H]1C)[C@@]24OO3 [Artemether],CYP interaction: Inhibitor,[2],3A4
O=C(O)Cc1ccccc1Nc1c(Cl)cccc1Cl [Diclofenac],"CLint, 8HUM",[5],1.8 mL/min/g liver
C[C@]1(COc2ccc(N3CCC(Oc4ccc(OC(F)(F)F)cc4)CC3)cc2)Cn2cc([N+](=O)[O-])nc2O1 [Delamanid],"CLint, Human",[6],0.8 mL/min/g liver
same,CL/F,[7],20.7 mL/min/kg
same,apparent volume of distribution (V/F),[8],11.9 L/kg
same,oral clearance (CL/F),[8],9.12 mL/min/kg
same,CL/F,[9],110 mL/min/kg
COc1c(N2C[C@@H]3CCCN[C@@H]3C2)c(F)cc2c(=O)c(C(=O)O)cn(C3CC3)c12 [moxifloxacin],log CFU reduction in the lungs compared to the control group,[10],3.9 log CFU
CCCCN(CCCC)CCC(O)c1cc2c(Cl)cc(Cl)cc2c2cc(C(F)(F)F)ccc12 (stereo not drawn) [Halofantrine],"CLint, Human",[6],1.7 mL/min/g liver
same,CYP interaction: Substrate,[2],3A4
CC[C@H]1OC(=O)[C@H](C)[C@@H](O[C@H]2C[C@@](C)(OC)[C@@H](O)[C@H](C)O2)[C@H](C)[C@@H](O[C@@H]2O[C@H](C)C[C@H](N(C)C)[C@H]2O)[C@](C)(OC)C[C@@H](C)C(=O)[C@H](C)[C@@H](O)[C@]1(C)O [Clarithromycin],"CLint, Human",[6],1.4 mL/min/g liver
same,CYP interaction: Substrate,[2],3A4
CO[C@H]1/C=C/O[C@@]2(C)Oc3c(C)c(O)c4c(O)c(c(/C=N/N5CCN(C6CCCC6)CC5)c(O)c4c3C2=O)NC(=O)/C(C)=C\C=C\[C@H](C)[C@H](O)[C@@H](C)[C@@H](O)[C@@H](C)[C@H](OC(C)=O)[C@@H]1C [Rifapentine],CYP interaction: Inducer,[2],"2C8, 2C9"
CC(C)c1nc(CN(C)C(=O)N[C@H](C(=O)N[C@@H](Cc2ccccc2)C[C@H](O)[C@H](Cc2ccccc2)NC(=O)OCc2cncs2)C(C)C)cs1 [Ritonavir],"CLint, Human",[6],6.6 mL/min/g liver
OC(c1cc(C(F)(F)F)nc2c(C(F)(F)F)cccc12)C1CCCCN1 (stereo not drawn) [Mefloquine],"CLint, Human",[6],0.5 mL/min/g liver
same,"CLint, WT",[11],0.5 mL/min/g liver
same,"CLint, Human",[12],0.5 mL/min/g liver
same,"CLint, CypC4KO",[3],0.5 mL/min/g liver
same,"CLint, 8HUM",[5],0.5 mL/min/g liver
CC[C@H]1OC(=O)[C@H](C)[C@@H](O[C@H]2C[C@@](C)(OC)[C@@H](O)[C@H](C)O2)[C@H](C)[C@@H](O[C@@H]2O[C@H](C)C[C@H](N(C)C)[C@H]2O)[C@](C)(O)C[C@@H](C)C(=O)[C@H](C)[C@@H](O)[C@]1(C)O [Erythromycin],"CLint, Human",[6],3.3 mL/min/g liver
same,"CLint, WT",[11],1.3 mL/min/g liver
same,"CLint, Human",[12],0.5 mL/min/g liver
same,"CLint, 8HUM",[5],0.5 mL/min/g liver
CC1(C)S[C@@H]2[C@H](NC(=O)[C@H](N)c3ccc(O)cc3)C(=O)N2[C@H]1C(=O)O [Amoxicillin],CYP interaction: Inhibitor,[2],2C19
CCOc1ccc(NC(C)=O)cc1 [Phenacetin],"CLint, 8HUM",[5],1.3 mL/min/g liver
CCOc1ccc2ccc(=O)oc2c1 [7-ethoxycoumarin],"CLint, WT",[11],39 mL/min/g liver
same,"CLint, Human",[12],8.2 mL/min/g liver
same,"CLint, 8HUM",[5],13.8 mL/min/g liver
[H]/N=C(\N/C(=N/[H])Nc1ccc(Cl)cc1)NC(C)C [Proguanil],"CLint, Human",[6],0.3 mL/min/g liver
same,"CLint, 8HUM",[1],0.5 mL/min/g liver
same,CYP interaction: Substrate,[2],2C19
same,"CLint, WT",[4],0.5 mL/min/g liver
